{"source": "paper PMC10999543", "about": "“Identification of kinase modulators as host-directed therapeutics against intracellular methicillin-resistant Staphylococcus aureus” (Frontiers in Cellular and Infection Microbiology, 2024)", "key": {"[1]": {"test_system": "intracellular MRSA", "format": "cell-based, Staphylococcus aureus", "conditions": "for %GFP+ rep 1 / z-scoreMRSA+ rep 1: replicate 1; for %GFP+ rep 2 / z-scoreMRSA+ rep 2: replicate 2; for %GFP+ rep 3 / z-scoreMRSA+ rep 3: replicate 3; for z-scoreMRSA+ mean: mean of 3 replicates", "method_in_brief": "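HeLa, MRSA-GFP at MOI ~6.8, 1 h infection; gentamicin 30 µg/ml for 15 min; inhibitor plus gentamicin 5 µg/ml overnight, 37°C/5% CO2; triplicate plates; FACS %GFP+ and cell count; hit = z ≤ -2 MRSA+, z ≥ -3 count.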"}, "[2]": {"test_system": "HeLa cells", "assay": "Compound screen by flow cytometry: HeLa cell count as surrogate readout of cell viability (z-scoreHeLa)", "format": "cell-based, human", "conditions": "for cell count rep 1 / z-scoreHeLa rep 1: replicate 1; for cell count rep 2 / z-scoreHeLa rep 2: replicate 2; for cell count rep 3 / z-scoreHeLa rep 3: replicate 3; for z-scoreHeLa mean: mean of 3 replicates", "method_in_brief": "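HeLa cells were infected with GFP-MRSA (mean MOI 6.8 ± 4.6) for 1 h, and extracellular bacteria were killed with 30 µg/ml gentamicin. Cells were then incubated overnight with kinase inhibitors in 5 µg/ml gentamicin, in triplicate against DMSO controls. Flow-cytometric cell count served as a viability surrogate, expressed as a plate z-score.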"}, "[3]": {"conditions": "PKIS compounds raw data, MRSA-infected HeLa cells"}, "[4]": {"conditions": "Yes/No: effect without cell death"}, "[5]": {"conditions": "compound screen, MRSA-infected HeLa cells"}, "[6]": {"conditions": "PKIS compounds raw data, HeLa cell count"}, "[7]": {"conditions": "compound screen, HeLa cell count"}, "[8]": {"conditions": "PKIS compound screen raw data, MRSA-infected HeLa cells"}, "[9]": {"conditions": "PKIS compound screen, MRSA-infected HeLa cells"}, "[10]": {"conditions": "PKIS compound screen, Yes/No call (effect without cell death)"}, "[11]": {"conditions": "PKIS compound screen raw data, HeLa cell count"}, "[12]": {"conditions": "PKIS compound screen, HeLa cell count"}, "[13]": {"conditions": "PKIS compound screen, Yes/No call"}}, "note": "Read-outs that look alike come from different tables or passages of the source."}
{"smiles": "Fc1cccc(COc2ccc(Nc3ncnc4cc(-c5ccc[nH]5)sc34)cc2Cl)c1", "note": "[GW693881A]", "values": [{"measurement": "%GFP+ rep 1", "setting": "[1]; [3]", "value": 15.5, "unit": "%"}, {"measurement": "%GFP+ rep 2", "setting": "[1]; [3]", "value": 14.8, "unit": "%"}, {"measurement": "%GFP+ rep 3", "setting": "[1]; [3]", "value": 13.6, "unit": "%"}, {"measurement": "effect", "setting": "[1]; Yes/No call from z-scoreMRSA+", "value": "No"}, {"measurement": "hit", "setting": "[1]; [4]", "value": "No"}, {"measurement": "z-scoreMRSA+ mean", "setting": "[1]; [5]", "value": 0.17}, {"measurement": "z-scoreMRSA+ rep 1", "setting": "[1]; [5]", "value": 0.75}, {"measurement": "z-scoreMRSA+ rep 2", "setting": "[1]; [5]", "value": 0.44}, {"measurement": "z-scoreMRSA+ rep 3", "setting": "[1]; [5]", "value": -0.68}, {"measurement": "cell count rep 1", "setting": "[2]; [6]", "value": 5481}, {"measurement": "cell count rep 2", "setting": "[2]; [6]", "value": 4577}, {"measurement": "cell count rep 3", "setting": "[2]; [6]", "value": 7047}, {"measurement": "cell death", "setting": "[2]; Yes/No call from z-scoreHeLa", "value": "No"}, {"measurement": "z-scoreHeLa mean", "setting": "[2]; [7]", "value": 0.30}, {"measurement": "z-scoreHeLa rep 1", "setting": "[2]; [7]", "value": 0.64}, {"measurement": "z-scoreHeLa rep 2", "setting": "[2]; [7]", "value": 0.23}, {"measurement": "z-scoreHeLa rep 3", "setting": "[2]; [7]", "value": 0.04}]}
{"smiles": "c1ccc(-c2n[nH]cc2Nc2ccnc3ccccc23)nc1", "note": "[GW694077X]", "values": [{"measurement": "%GFP+ rep 1", "setting": "[1]; [8]", "value": 15.2, "unit": "%"}, {"measurement": "%GFP+ rep 2", "setting": "[1]; [8]", "value": 17.2, "unit": "%"}, {"measurement": "%GFP+ rep 3", "setting": "[1]; [8]", "value": 15.3, "unit": "%"}, {"measurement": "z-scoreMRSA+ mean", "setting": "[1]; [9]", "value": -1.06}, {"measurement": "z-scoreMRSA+ rep 1", "setting": "[1]; [9]", "value": -0.96}, {"measurement": "z-scoreMRSA+ rep 2", "setting": "[1]; [9]", "value": -0.60}, {"measurement": "z-scoreMRSA+ rep 3", "setting": "[1]; [9]", "value": -1.62}, {"measurement": "hit", "setting": "[1]; [10]", "value": "No"}, {"measurement": "effect", "setting": "[1]; PKIS compound screen, Yes/No call on z-scoreMRSA+", "value": "No"}, {"measurement": "cell count rep 1", "setting": "[2]; [11]", "value": 27159}, {"measurement": "cell count rep 2", "setting": "[2]; [11]", "value": 28509}, {"measurement": "cell count rep 3", "setting": "[2]; [11]", "value": 18866}, {"measurement": "z-scoreHeLa mean", "setting": "[2]; [12]", "value": 0.01}, {"measurement": "z-scoreHeLa rep 1", "setting": "[2]; [12]", "value": -0.51}, {"measurement": "z-scoreHeLa rep 2", "setting": "[2]; [12]", "value": 0.55}, {"measurement": "z-scoreHeLa rep 3", "setting": "[2]; [12]", "value": -0.0113}, {"measurement": "cell death", "setting": "[2]; PKIS compound screen, Yes/No call on z-scoreHeLa", "value": "No"}]}
{"smiles": "COC(=O)Nc1nc2ccc(Oc3ccc(NC(=O)Nc4cc(C(F)(F)F)ccc4Cl)cc3)cc2[nH]1", "note": "[GW697465A]", "values": [{"measurement": "%GFP+ rep 1", "setting": "[1]; [8]", "value": 23.4, "unit": "%"}, {"measurement": "%GFP+ rep 2", "setting": "[1]; [8]", "value": 20.2, "unit": "%"}, {"measurement": "%GFP+ rep 3", "setting": "[1]; [8]", "value": 19.7, "unit": "%"}, {"measurement": "effect", "setting": "[1]; Yes/No call from z-scoreMRSA+", "value": "No"}, {"measurement": "hit", "setting": "[1]; [4]", "value": "No"}, {"measurement": "z-scoreMRSA+ mean", "setting": "[1]; [5]", "value": -0.59}, {"measurement": "z-scoreMRSA+ rep 1", "setting": "[1]; [5]", "value": -0.44}, {"measurement": "z-scoreMRSA+ rep 2", "setting": "[1]; [5]", "value": -0.59}, {"measurement": "z-scoreMRSA+ rep 3", "setting": "[1]; [5]", "value": -0.75}, {"measurement": "cell count rep 1", "setting": "[2]; [11]", "value": 4644}, {"measurement": "cell count rep 2", "setting": "[2]; [11]", "value": 3894}, {"measurement": "cell count rep 3", "setting": "[2]; [11]", "value": 5423}, {"measurement": "cell death", "setting": "[2]; Yes/No call from z-scoreHeLa", "value": "No"}, {"measurement": "z-scoreHeLa mean", "setting": "[2]; [7]", "value": 0.00465}, {"measurement": "z-scoreHeLa rep 1", "setting": "[2]; [7]", "value": 0.21}, {"measurement": "z-scoreHeLa rep 2", "setting": "[2]; [7]", "value": -0.31}, {"measurement": "z-scoreHeLa rep 3", "setting": "[2]; [7]", "value": 0.12}]}
{"smiles": "Cc1nnc(-c2ccc(C)c(-c3ccc(C(=O)Nc4ccc(NS(C)(=O)=O)cc4)cc3)c2)o1", "note": "[GW702865X]", "values": [{"measurement": "%GFP+ rep 1", "setting": "[1]; [3]", "value": 15.5, "unit": "%"}, {"measurement": "%GFP+ rep 2", "setting": "[1]; [3]", "value": 15.8, "unit": "%"}, {"measurement": "%GFP+ rep 3", "setting": "[1]; [3]", "value": 15.0, "unit": "%"}, {"measurement": "effect", "setting": "[1]; Yes/No call from z-scoreMRSA+", "value": "No"}, {"measurement": "hit", "setting": "[1]; [4]", "value": "No"}, {"measurement": "z-scoreMRSA+ mean", "setting": "[1]; [5]", "value": 0.42}, {"measurement": "z-scoreMRSA+ rep 1", "setting": "[1]; [5]", "value": 0.75}, {"measurement": "z-scoreMRSA+ rep 2", "setting": "[1]; [5]", "value": 0.77}, {"measurement": "z-scoreMRSA+ rep 3", "setting": "[1]; [5]", "value": -0.26}, {"measurement": "cell count rep 1", "setting": "[2]; [6]", "value": 4074}, {"measurement": "cell count rep 2", "setting": "[2]; [6]", "value": 4158}, {"measurement": "cell count rep 3", "setting": "[2]; [6]", "value": 6358}, {"measurement": "cell death", "setting": "[2]; Yes/No call from z-scoreHeLa", "value": "No"}, {"measurement": "z-scoreHeLa mean", "setting": "[2]; [7]", "value": -0.34}, {"measurement": "z-scoreHeLa rep 1", "setting": "[2]; [7]", "value": -0.64}, {"measurement": "z-scoreHeLa rep 2", "setting": "[2]; [7]", "value": -0.08}, {"measurement": "z-scoreHeLa rep 3", "setting": "[2]; [7]", "value": -0.29}]}
{"smiles": "Fc1cccc(COc2ccc(Nc3ncnc4sc(-c5ccc[nH]5)cc34)cc2Cl)c1", "note": "[GW707818B]", "values": [{"measurement": "%GFP+ rep 1", "setting": "[1]; [3]", "value": 24.9, "unit": "%"}, {"measurement": "%GFP+ rep 2", "setting": "[1]; [3]", "value": 22.3, "unit": "%"}, {"measurement": "%GFP+ rep 3", "setting": "[1]; [3]", "value": 25.1, "unit": "%"}, {"measurement": "effect", "setting": "[1]; Yes/No call from z-scoreMRSA+", "value": "No"}, {"measurement": "hit", "setting": "[1]; [4]", "value": "No"}, {"measurement": "z-scoreMRSA+ mean", "setting": "[1]; [5]", "value": 0.24}, {"measurement": "z-scoreMRSA+ rep 1", "setting": "[1]; [5]", "value": -0.09}, {"measurement": "z-scoreMRSA+ rep 2", "setting": "[1]; [5]", "value": -0.0758}, {"measurement": "z-scoreMRSA+ rep 3", "setting": "[1]; [5]", "value": 0.87}, {"measurement": "cell count rep 1", "setting": "[2]; [6]", "value": 5915}, {"measurement": "cell count rep 2", "setting": "[2]; [6]", "value": 6344}, {"measurement": "cell count rep 3", "setting": "[2]; [6]", "value": 7651}, {"measurement": "cell death", "setting": "[2]; Yes/No call from z-scoreHeLa", "value": "No"}, {"measurement": "z-scoreHeLa mean", "setting": "[2]; [7]", "value": 1.41}, {"measurement": "z-scoreHeLa rep 1", "setting": "[2]; [7]", "value": 1.13}, {"measurement": "z-scoreHeLa rep 2", "setting": "[2]; [7]", "value": 1.57}, {"measurement": "z-scoreHeLa rep 3", "setting": "[2]; [7]", "value": 1.52}]}
{"smiles": "Cc1nnc(-c2ccc(C)c(-c3ccc(C(=O)NCc4ccc(Cl)cc4)cc3)c2)o1", "note": "[GW708893X]", "values": [{"measurement": "effect", "setting": "[1]; [13]", "value": "No"}, {"measurement": "hit", "setting": "[1]; [10]", "value": "No"}, {"measurement": "z-scoreMRSA+ mean", "setting": "[1]; PKIS compound screen", "value": 0.76}, {"measurement": "z-scoreMRSA+ rep 1", "setting": "[1]; PKIS compound screen", "value": 0.91}, {"measurement": "z-scoreMRSA+ rep 2", "setting": "[1]; PKIS compound screen", "value": 1.61}, {"measurement": "z-scoreMRSA+ rep 3", "setting": "[1]; PKIS compound screen", "value": -0.23}, {"measurement": "%GFP+ rep 1", "setting": "[1]; [3]", "value": 16.0, "unit": "%"}, {"measurement": "%GFP+ rep 2", "setting": "[1]; [3]", "value": 18.3, "unit": "%"}, {"measurement": "%GFP+ rep 3", "setting": "[1]; [3]", "value": 15.1, "unit": "%"}, {"measurement": "cell death", "setting": "[2]; [13]", "value": "No"}, {"measurement": "z-scoreHeLa mean", "setting": "[2]; PKIS compound screen", "value": 0.63}, {"measurement": "z-scoreHeLa rep 1", "setting": "[2]; PKIS compound screen", "value": 0.34}, {"measurement": "z-scoreHeLa rep 2", "setting": "[2]; PKIS compound screen", "value": 1.23}, {"measurement": "z-scoreHeLa rep 3", "setting": "[2]; PKIS compound screen", "value": 0.31}, {"measurement": "cell count rep 1", "setting": "[2]; [6]", "value": 5153}, {"measurement": "cell count rep 2", "setting": "[2]; [6]", "value": 5899}, {"measurement": "cell count rep 3", "setting": "[2]; [6]", "value": 7607}]}
